Assay results from US20230143612A1 (Arbutus Biopharma Corporation, priority 2020, published 2023).

Molecular target: PD-L1 His protein / PD-1 Fc protein (Homo sapiens, UniProt Q9NZQ7)
Assay: HTRF Assay (PD-1/PD-L1 interaction)
Assay type: binding
Settings: PD-L1 His 6 nM, PD-1 Fc 6 nM
Summary of the method: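 HTRF: PD-L1 His (6 nM final), compound (3-fold dilutions, 20 μM to 0.001 μM final) and PD-1 Fc (6 nM final) preincubated 15 min at room temperature. Anti-human IgG-XL665 and anti-6HIS Tb cryptate (mixed at 6.7 nM and 0.35 nM) then added for 1 h at room temperature before reading.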

Chain of PD-L1 His protein / PD-1 Fc protein (Q9NZQ7 19-238 limits assumed): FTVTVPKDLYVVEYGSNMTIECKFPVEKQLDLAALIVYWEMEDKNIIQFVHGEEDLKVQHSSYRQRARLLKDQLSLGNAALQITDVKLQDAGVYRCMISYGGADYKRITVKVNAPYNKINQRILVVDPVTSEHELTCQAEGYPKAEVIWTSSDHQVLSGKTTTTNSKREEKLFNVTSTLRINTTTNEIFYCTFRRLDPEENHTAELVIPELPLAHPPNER

Row | Compound | IC50 [nM]
1 | COc1nc(-c2cccc(-c3cccc(-c4ccn5c(=O)c(CN[C@@H](CO)C(=O)O)cnc5c4)c3Cl)c2Cl)ccc1CNCCO [Example 191, ((8-(2,2′-Dichloro-3′-(5-(((2-hydroxyethyl)amino)methyl)-6-methoxypyridin-2-yl)-[1,1′-biphenyl]-3-yl)-4-oxo-4H-pyrido[1,2-a]pyrimidin-3-yl)methyl)-L-serine] | 0.1
2 | COc1cc(-c2cccc(-c3cccc(-c4ccn5c(=O)c(CN(C)CCO)cnc5c4)c3Cl)c2Cl)cnc1CN(C)CCO [Example 362, 8-(2,2′-Dichloro-3′-(6-(((2-hydroxyethyl)(methyl)amino)methyl)-5-methoxypyridin-3-yl)-[1,1′-biphenyl]-3-yl)-3-(((2-hydroxyethyl)(methyl)amino)methyl)-4H-pyrido[1,2-a]pyrimidin-4-one] | 36
3 | COc1nc(-c2cccc(-c3cccc(-c4ccc5c(CN(C)CCO)cn(C)c5n4)c3Cl)c2Cl)ccc1CNC[C@@H]1CCC(=O)N1 [Example 412, (5S)-5-[[[6-[2-Chloro-3-[2-chloro-3-[3-[[2-hydroxyethyl(methyl)amino]methyl]-1-methyl-pyrrolo[2,3-b]pyridin-6-yl]phenyl]phenyl]-2-methoxy-3-pyridyl]methylamino]methyl]pyrrolidin-2-one] | 5.2
4 | COc1nc(-c2cccc(-c3cccc(-c4cnc5c(CNC[C@@H]6CCC(=O)N6)c(C)nn5c4)c3Cl)c2Cl)ccc1CNC[C@@H]1CCC(=O)N1 [Example 420, (S)-5-((((6-(2,2′-Dichloro-3′-(2-methyl-3-(((((S)-5-oxopyrrolidin-2-yl)methyl)amino)methyl)pyrazolo[1,5-a]pyrimidin-6-yl)-[1,1′-biphenyl]-3-yl)-2-methoxypyridin-3-yl)methyl)amino)methyl)pyrrolidin-2-one] | 0.6
5 | COc1nc(-c2cccc(-c3cccc(-c4ccc5c(CNC[C@@H]6CCC(=O)N6)cn(C)c5c4)c3Cl)c2Cl)ccc1CNC[C@@H]1CCC(=O)N1 [Example 452, (5S)-5-[[[6-[2-Chloro-3-[2-chloro-3-[1-methyl-3-[[[(2S)-5-oxopyrrolidin-2-yl]methylamino]methyl]indol-6-yl]phenyl]phenyl]-2-methoxy-3-pyridyl]methylamino]methyl]pyrrolidin-2-one] | 68
6 | COc1cc(-c2cccc(-c3cccc(-c4ccc(CNC[C@@H]5CCC(=O)N5)c(OC)n4)c3Cl)c2Cl)cc2c1CN(C[C@H](C)O)CC2 [Example 418, (S)-5-((((6-(2,2′-Dichloro-3′-(2-((S)-2-hydroxypropyl)-8-methoxy-1,2,3,4 tetrahydroisoquinolin-6-yl)-[1,1′-biphenyl]-3-yl)-2-methoxypyridin-3-yl)methyl)amino)methyl)pyrrolidin-2-one] | 23
7 | COc1nc(-c2cccc(-c3cccc(-c4ccc5nc(C(=O)NCCN)cn5n4)c3Cl)c2Cl)ccc1CNC[C@@H]1CCC(=O)N1 [Example 438, N-(2-Aminoethyl)-6-[2-chloro-3-[2-chloro-3-[6-methoxy-5-[[[(2S)-5-oxopyrrolidin-2-yl]methylamino]methyl]-2-pyridyl]phenyl]phenyl]imidazo[1,2-b]pyridazine-2-carboxamide] | 14
8 | COc1nc(-c2cccc(-c3cccc(-c4ccn5c(=O)c(CNC[C@@H]6CCC(=O)N6)cnc5c4)c3Cl)c2C(F)(F)F)ccc1CNC[C@@H]1CCC(=O)N1 [Example 95, 8-(2-Chloro-3′-(6-methoxy-5-(((((S)-5-oxopyrrolidin-2-yl)methyl)amino)methyl)pyridin-2-yl)-2′-(trifluoromethyl)-[1,1′-biphenyl]-3-yl)-3-(((((S)-5-oxopyrrolidin-2-yl)methyl)amino)methyl)-4H-pyrido[1,2-a]pyrimidin-4-one] | 23
9 | COc1nc(-c2cccc(-c3cccc(-c4ccn5c(=O)c(CN(C)CCO)cnc5c4)c3Cl)c2Cl)ccc1CNC[C@@H]1CCC(=O)N1 [Example 281, (S)-8-(2,2′-Dichloro-3′-(6-methoxy-5-((((5-oxopyrrolidin-2-yl)methyl)-amino)-methyl)pyridin-2-yl)-[1,1′-biphenyl]-3-yl)-3-(((2-hydroxyethyl)(methyl)amino)methyl)-4H-pyrido[1,2-a]-pyrimidin-4-one] | 0.1
10 | COc1nc(-c2cccc(-c3cccc(-c4cc(C)n5c(=O)c(CN[C@H]6C[C@@](C)(O)C6)cnc5c4)c3Cl)c2Cl)ccc1CNC[C@@H]1CCC(=O)N1 [Example 254, 8-(2,2′-Dichloro-3′-(6-methoxy-5-(((((S)-5-oxopyrrolidin-2-yl)methyl)amino)methyl)pyridin-2-yl)-[1,1′-biphenyl]-3-yl)-3-((((1s,3s)-3-hydroxy-3-methylcyclobutyl)amino)methyl)-6-methyl-4H-pyrido[1,2-a]pyrimidin-4-one] | 61
11 | COc1nc(-c2cccc(-c3cccc(-c4ccn5c(=O)c(CNC[C@H](C)O)cnc5c4)c3Cl)c2Cl)cc(F)c1CNC[C@@H]1CCC(=O)N1 [Example 272, 8-[2-Chloro-3-[2-chloro-3-[4-fluoro-6-methoxy-5-[[[(2S)-5-oxopyrrolidin-2-yl]methylamino]methyl]-2-pyridyl]phenyl]phenyl]-3-[[[(2S)-2-hydroxypropyl]amino]methyl]pyrido[1,2-a]pyrimidin-4-one] | 0.2
12 | COc1nc(-c2cccc(-c3cccc(-c4ccn5c(=O)c(CN[C@H]6C[C@](C)(O)C6)cnc5c4)c3Cl)c2Cl)ccc1CNC[C@@H]1CCC(=O)N1 [Example 143, 8-(2,2′-Dichloro-3′-(6-methoxy-5-(((((S)-5-oxopyrrolidin-2-yl)methyl)amino)methyl)pyridin-2-yl)-[1,1′-biphenyl]-3-yl)-3-((((1r,3r)-3-hydroxy-3-methylcyclobutyl)amino)methyl)-4H-pyrido[1,2-a]pyrimidin-4-one] | 1.8
13 | COc1nc(-c2cccc(-c3cccc(-c4ccn5c(=O)c(CNC[C@@H]6CCC(=O)N6)cnc5c4)c3C)c2Cl)ccc1CNC[C@@H]1CCC(=O)N1 [Example 32, 8-(2′-Chloro-3′-(6-methoxy-5-(((((S)-5-oxopyrrolidin-2-yl)methyl)amino)methyl)pyridin-2-yl)-2-methyl-[1,1′-biphenyl]-3-yl)-3-(((((S)-5-oxopyrrolidin-2-yl)methyl)amino)methyl)-4H-pyrido[1,2-a]pyrimidin-4-one] | 2.3
14 | COC(=O)C1CN(Cc2cnc3cc(-c4cccc(-c5cccc(-c6ccc(CNC[C@@H]7CCC(=O)N7)c(OC)n6)c5Cl)c4Cl)ccn3c2=O)C1 [Example 162, (S)-Methyl 1-((8-(2,2′-dichloro-3′-(6-methoxy-5-((((5-oxopyrrolidin-2-yl)methyl)amino)methyl)pyridin-2-yl)-[1,1′-biphenyl]-3-yl)-4-oxo-4H-pyrido[1,2-a]pyrimidin-3-yl)methyl)azetidine-3-carboxylate] | 3.8
15 | Cc1c(COc2cc(OCc3cncc(C#N)c3)c(CNCCO)cc2Cl)cccc1-c1cccc(-n2cnc3cc(CNCCO)ccc3c2=O)c1C [Example 6, 5-((4-Chloro-2-(((2-hydroxyethyl)amino)methyl)-5-((3′-(7-(((2-hydroxyethyl)amino)methyl)-4-oxoquinazolin-3(4H)-yl)-2,2′-dimethyl-[1,1′-biphenyl]-3-yl)methoxy)phenoxy)methyl)nicotinonitrile] | 44
16 | Cc1c(-c2ccn3c(=O)c(CNC4CNC(=O)C4)cnc3c2)cccc1-c1cccc(-c2ccc(CNC[C@@H]3CCC(=O)N3)c(F)n2)c1Cl (stereo partly drawn) [Example 62, 8-(2′-Chloro-3′-(6-fluoro-5-(((((S)-5-oxopyrrolidin-2-yl)methyl)amino)methyl)pyridin-2-yl)-2-methyl-[1,1′-biphenyl]-3-yl)-3-(((5-oxopyrrolidin-3-yl)amino)methyl)-4H-pyrido[1,2-a]pyrimidin-4-one] | 19
17 | O=C1CC[C@@H](CNCc2nc3cc(-c4cccc(-c5cccc(-c6ccn7c(Cl)c(CNC[C@@H]8CCC(=O)N8)nc7c6)c5Cl)c4Cl)ccn3c2Cl)N1 [Example 430, (5S)-5-[[[3-Chloro-7-[2-chloro-3-[2-chloro-3-[3-chloro-2-[[[(2S)-5-oxopyrrolidin-2-yl]methylamino]methyl]imidazo[1,2-a]pyridin-7-yl]phenyl]phenyl]imidazo[1,2-a]pyridin-2-yl]methylamino]methyl]pyrrolidin-2-one] | 170
18 | COc1nc(-c2cccc(-c3cccc(-c4cc(=O)n5cc(CNC[C@@H]6CCC(=O)N6)ccc5n4)c3Cl)c2Cl)cnc1CNC[C@@H]1CCC(=O)N1 [Example 58, 2-(2,2′-Dichloro-3′-(6-methoxy-5-(((((S)-5-oxopyrrolidin-2-yl)methyl)amino)methyl)pyrazin-2-yl)-[1,1′-biphenyl]-3-yl)-7-(((((S)-5-oxopyrrolidin-2-yl)methyl)amino)methyl)-4H-pyrido[1,2-a]pyrimidin-4-one] | 2.2
19 | COc1nc(-c2cccc(-c3cccc(-c4cc(C)c5nc(CNC[C@@H]6CCC(=O)N6)cc(=O)n5c4)c3Cl)c2Cl)ccc1CNC[C@@H]1CCC(=O)N1 [Example 288, 7-(2,2′-Dichloro-3′-(6-methoxy-5-(((((S)-5-oxopyrrolidin-2-yl)methyl)amino)methyl)pyridin-2-yl)-[1,1′-biphenyl]-3-yl)-9-methyl-2-(((((S)-5-oxopyrrolidin-2-yl)methyl)amino)methyl)-4H-pyrido[1,2-a]pyrimidin-4-one] | 56
20 | COc1nc(-c2cccc(-c3cccc(-c4cc5c(=O)n(C)c(CNCCN6CCCC6=O)nn5c4)c3Cl)c2Cl)ccc1CNC[C@@H]1CCC(=O)N1 [Example 458, 6-[2-Chloro-3-[2-chloro-3-[6-methoxy-5-[[[(2S)-5-oxopyrrolidin-2-yl]methylamino]methyl]-2-pyridyl]phenyl]phenyl]-3-methyl-2-[[2-(2-oxopyrrolidin-1-yl)ethylamino]methyl]pyrrolo[2,1-f][1,2,4]triazin-4-one] | 240
